Test results: PMC7542481, “Synthesis of Amino Acid Schiff Base Nickel (II) Complexes as Potential Anticancer Drugs In Vitro” (Bioinorganic Chemistry and Applications, 2020)

How the values were obtained:
breast cancer MCF-7 = assay: MTT cytotoxicity assay, MCF-7; assay type: cell-based, human; details: treatment 48 h
Description: (§1) 3-(4,5-Dimethylthiazol-2-yl)-2, 5-diphenyltetrazolium bromide (MTT) method was used to assay the cytotoxicity in vitro. Complexes 1–3, ligands (L1, L2, and L3), Ni (CH3COO)2, and cisplatin were dissolved in DMSO at the concentration of 20 mM as a stock solution for subsequent testing. Four different cancer cell lines (MCF-7, SGC-7901, Eca-109, and HepG2) and one normal cell line (HSF) were seeded in 96-well and cultured at 37 °C in 5% CO2. After 24 h, the medium was replaced by different concentrations of complex and incubated for 48 h. 10 μL MTT dye (5 mg/mL) was added to each well and incubated for another 4 h. After that, the medium was removed and DMSO (100 μL) was added to solubilize the MTT formazan. A microplate reader (Bio-Rad iMark™) was used to measure the OD value of each well at a wavelength of 490 nm. Each experiment was repeated at least three times, and GraphPad Prism 5.0 was used to analyze the IC50 values.

gastric cancer SGC-7901 = assay: MTT cytotoxicity assay, SGC-7901; assay type: cell-based, human; details: treatment 48 h
Description: as §1

[1] = tested on: esophageal cancer Eca-109; assay: MTT cytotoxicity assay, Eca-109; assay type: cell-based, human; details: treatment 48 h
Description: as §1

[2] = tested on: hepatocellular carcinoma HepG2; assay: MTT cytotoxicity assay, HepG2; assay type: cell-based, human; details: treatment 48 h
Description: as §1

Eca-109 cells [3] = assay: Annexin V-PE/7-AAD staining apoptosis assay by flow cytometry (with or without NAC or 3-MA pretreatment); assay type: cell-based, human; details: for percentage of apoptotic cells: 24 h, control 7.30%
Description: N-acetyl-L-cysteine (NAC), as a ROS scavenger, was added in a medium for 1 h before the addition of complex 2 to examine the effect of ROS on cell viability. The percentage of apoptotic cells was detected by Annexin V-PE/7-AAD staining assay after complex 2 treatment with or without NAC.
Different stages of apoptosis induced by complex 2 were determined by Annexin V-PE and 7-AAD staining according to the manufacture's protocol for the Annexin V Apoptosis Detection Kit (BD, Bioscience). Eca-109 cells were seeded in a 6-well plate with a density of 2 × 10^5 cells per well and cultured at 37°C in 5% CO2 for 24 h. Then, different concentrations of complex 2 were added into the above well and incubated for another 24 h. The cells were resuspended in binding buffer, stained with 5 μL Annexin V-PE and 5 μL 7-AAD at room temperature for 15 min, and analyzed using the flow cytometer (BD FACS Aria III).
3-MA, as an autophagic inhibitor, was added in a medium for 1 h before the addition of complex 2 to examine the effect of autophagy on cell viability. The percentage of apoptotic cells was detected by Annexin V-PE/7-AAD staining assay after complex 2 treatment with or without 3-MA.

normal human cells HSF = assay: MTT cytotoxicity assay, HSF; assay type: cell-based; details: treatment 48 h
Description: as §1

Eca-109 cells [4] = assay: Mitochondrial membrane potential by JC-1 staining, flow cytometry; assay type: cell-based, human; details: 24 h, control 4.69%
Description: After being treated with different concentrations of complex 2, the cells were collected and incubated in 500 μL PBS containing 10 μg/mL JC-1 for 20 min at 37°C in the dark. Then, the cells were resuspended in PBS and analyzed by flow cytometry (BD FACS Aria III).

Eca-109 cells [5] = assay: Cell cycle arrest assay, PI staining, flow cytometry; assay type: cell-based, human; details: for percentage of cells in S phase / percentage in the cell at the G2/M phase / percentage in the cell at the G0/G1 phase: 24 h; for percentage in the cell at the G2/M phase: control 6.35%; for percentage in the cell at the G0/G1 phase: control 63.82%
Description: After treatment with different concentrations of complex 2, the cells were collected and fixed with 70% ethanol for the night. Then, the cells were incubated in 500 μL PBS containing Triton X-100 (0.1% v/v), RNase A (0.2 mg/mL), and propidium iodide (PI, 0.02 mg/mL) for 15 min. Then, the cells were analyzed by flow cytometry (BD FACS Aria III).

Eca-109 cells [6] = assay: AO/EB double staining, fluorescence microscopy; assay type: cell-based, human; details: Eca-109, 20 μM and 40 μM, 24 h
Description: AO/EB double staining was used to observe the changes in apoptotic cells. Eca-109 cells were cultured in a 6-well plate for 24 h. Then, cells were treated with different concentrations of complex 2 for another 24 h. After that, cells were washed twice with ice-cold PBS, stained with 100 μg/mL AO/EB for 10 minutes, and photographed by fluorescence microscopy (Nikon Eclipse Ti–E, Nikon Instruments Inc., Japan).

Eca-109 cells [7] = assay: Hoechst 33342 staining, fluorescence microscopy; assay type: cell-based, human; details: Eca-109, 20 μM and 40 μM, 24 h
Description: With the density of 2 × 10^5 cells per well, Eca-109 cells were cultured in a 6-well plate for 24 h. After that, the medium was replaced by different concentrations of complex 2 and incubated for another 24 h. Then, cells were washed twice with ice-cold PBS, stained with 10 μg/mL Hoechst 33342 for 15 minutes, and photographed by fluorescence microscopy (Nikon Eclipse Ti–E, Nikon Instruments Inc., Japan).

Eca-109 cells [8] = assay: Intracellular ROS level, DCFH-DA probe; assay type: cell-based, human; details: Eca-109, 20 μM and 40 μM, 24 h
Description: Eca-109 cells were seeded into a 6-well plate at a density of 2 × 10^5 cells per well and incubated for 24 h. Then, the medium was replaced and incubated with different concentrations of complex 2 for another 24 h. After that, cells were washed twice with ice-cold PBS, stained with 10 μM DCFH-DA for 30 minutes, and photographed by fluorescence microscopy (Nikon Eclipse Ti–E, Nikon Instruments Inc., Japan).

Eca-109 cells [9] = assay: Autophagy assay, MDC staining; assay type: cell-based, human; details: Eca-109, 20 μM and 40 μM, 24 h, compared to the control group
Description: Eca-109 cells were seeded in 6-well plates and incubated at 37 °C in 5% CO2 for 24 h. Then, the medium was replaced with different concentrations of complex 2 for another 24 h. After that, the medium was removed and the cells were washed twice with ice-cold PBS. Then, the cells were stained with MDC (monodansylcadaverine) solution (50 μM) for 15 min, and the data were obtained by flow cytometry (BD FACS Aria III).

Bcl-2 = assay: Western blot assay, Bcl-2; assay type: cell-based, human; details: Eca-109, 24 h, concentration-dependent
Description: (§2) After incubation with different concentrations of complex 2, cells were harvested in a radioimmunoprecipitation assay (RIPA) buffer with protease inhibitors and phosphatase inhibitors. BCA Protein Assay Kit was used to determine the protein concentration. Then, the expression levels of proteins associated with Bcl-2 family and autophagy were measured by Western blot assay.

Bcl-xL = assay: Western blot assay, Bcl-xL; assay type: cell-based, human; details: Eca-109, 24 h, concentration-dependent
Description: as §2

Bax = assay: Western blot assay, Bax; assay type: cell-based, human; details: Eca-109, 24 h, concentration-dependent
Description: as §2

Bad = assay: Western blot assay, Bad; assay type: cell-based, human; details: Eca-109, 24 h, concentration-dependent
Description: as §2

Beclin-1 = assay: Western blot assay, Beclin-1; assay type: cell-based, human; details: Eca-109, 24 h, concentration-dependent
Description: as §2

LC3B-II = assay: Western blot assay, LC3B-II; assay type: cell-based, human; details: Eca-109, 24 h, concentration-dependent
Description: as §2

p62 = assay: Western blot assay, p62; assay type: cell-based, human; details: Eca-109, 24 h, concentration-dependent
Description: as §2

`O=C(O)[C@@H](Cc1c[nH]c2ccccc12)N=Cc1c(O)ccc2ccccc12` [Complex L3] was tested, and the IC50 (breast cancer MCF-7) was greater than 80 µM, the IC50 (gastric cancer SGC-7901) was 42.7 ± 1.13 µM and the IC50 [1] was 48.4 ± 4.99 µM. It also gave an IC50 [2] greater than 80 µM.
With `COc1cccc(C=N[C@H](Cc2c[nH]c3ccccc23)C(=O)O)c1O` [Complex L2] the IC50 (breast cancer MCF-7) was greater than 80 µM, the IC50 (gastric cancer SGC-7901) was greater than 80 µM and the IC50 [1] was greater than 80 µM. The IC50 [2] was greater than 80 µM.
`CC(=O)[O-].CC(=O)[O-].[Ni+2]` [Ni (CH3COO)2, reference compound] gave an IC50 (breast cancer MCF-7) greater than 80 µM, an IC50 (gastric cancer SGC-7901) of 41.4 ± 0.87 µM and an IC50 [1] of 43.5 ± 1.34 µM. The IC50 [2] was greater than 80 µM.
`Cn1cnc(N)c2ncnc1-2` [Complex 3-MA, 3-methyladenine, reference compound] was tested, and the toxicity toward cells (Eca-109 cells [3]; Eca-109, 3-MA alone) was “nontoxicity”.
Work on `CO.CO.CO.COc1cccc(C=N[C@H](Cc2c[nH]c3ccccc23)C(=O)[O-])c1[O-].[Ni+2].c1cnc2c(c1)ccc1cccnc12` [Complex 2, [Ni (Trp-o-van) (phen) (CH3OH)]•2CH3OH] yielded an IC50 (breast cancer MCF-7) of 16.1 ± 1.32 µM, an IC50 (gastric cancer SGC-7901) of 15.7 ± 1.46 µM and an IC50 [1] of 18.1 ± 2.39 µM. The IC50 [2] was 47.29 ± 0.35 µM, the IC50 (normal human cells HSF) was 23.9 ± 0.74 µM and the “percentage of apoptotic cells” value (Eca-109 cells [3]; Eca-109, 20 μM) was 8.78%. For the same molecule, the “percentage of apoptotic cells” value (Eca-109 cells [3]; Eca-109, 40 μM) was 29.40%, the “percentage of apoptosis cells with NAC pretreatment versus without” value (Eca-109 cells [3]; Eca-109, 24 h, NAC added 1 h before) was “reduced” and the “green fluorescence of the JC-1 monomers (loss of MMP)” value (Eca-109 cells [4]; Eca-109, 20 μM) was 6.86%. The “green fluorescence of the JC-1 monomers (loss of MMP)” value (Eca-109 cells [4]; Eca-109, 40 μM) was 49.5%, the “cell cycle arrest (in words)” value (Eca-109 cells [5]; Eca-109) was “cell cycle arrest in the G2/M phase” and the “percentage of cells in S phase” value (Eca-109 cells [5]; Eca-109, 20 μM) was 33.27%. For the same molecule, the “percentage in the cell at the G2/M phase” value (Eca-109 cells [5]; Eca-109, 20 μM) was 7.21%, the “percentage in the cell at the G0/G1 phase” value (Eca-109 cells [5]; Eca-109, 20 μM) was 59.51% and the “percentage of cells in S phase” value (Eca-109 cells [5]; Eca-109, 40 μM) was 31.32%. For the same molecule, the “percentage in the cell at the G2/M phase” value (Eca-109 cells [5]; Eca-109, 40 μM) was 19.84%, the “percentage in the cell at the G0/G1 phase” value (Eca-109 cells [5]; Eca-109, 40 μM) was 48.84% and the “morphological changes, AO/EB staining” value (Eca-109 cells [6]) was “nuclear shrinkage, chromatin condensation, and late apoptotic cells containing red apoptotic bodies”. The “apoptotic characteristics, Hoechst 33342 staining” value (Eca-109 cells [7]) was “apoptotic characteristics were also observed”, the “intracellular ROS level (DCF fluorescence)” value (Eca-109 cells [8]) was “increase the intracellular ROS level in a dosage-dependent manner” and the “MDC staining intensity (autophagy level)” value (Eca-109 cells [9]) was “increased significantly”. For the same molecule, the “expression level of Bcl-2” value (Bcl-2) was “significantly decreased”, the “expression level of Bcl-xL” value (Bcl-xL) was “significantly decreased” and the “expression level of Bax” value (Bax) was “significantly increased”. The “expression level of Bad” value (Bad) was “significantly increased”, the “expression level of Beclin-1” value (Beclin-1) was “increased” and the “expression level of LC3B-II” value (LC3B-II) was “increased”. For the same molecule, the “expression level of p62” value (p62) was “decreased”.
In the case of `O=C1[O][Ni][O]c2ccccc2C=N[C@@H]1Cc1c[nH]c2ccccc12.c1cnc2c(c1)ccc1cccnc12` [Complex 1, [Ni (Trp-sal) (phen) (CH3OH)]], the IC50 (breast cancer MCF-7) is reported as 75.75 ± 0.41 µM, the IC50 (gastric cancer SGC-7901) is reported as 34 ± 2.5 µM and the IC50 [1] is reported as 23.9 ± 2.54 µM. The IC50 [2] was greater than 80 µM and the IC50 (normal human cells HSF) was 60.9 ± 1.76 µM.
`O=C([O-])[C@@H](Cc1c[nH]c2ccccc12)N=Cc1c([O-])ccc2ccccc12.[Ni+2].c1cnc2c(c1)ccc1cccnc12` [Complex 3, [Ni (Trp-naph) (phen) (CH3OH)]] showed an IC50 (breast cancer MCF-7) of 23.7 ± 0.55 µM, an IC50 (gastric cancer SGC-7901) of 24.3 ± 0.95 µM and an IC50 [1] of 21.9 ± 3.19 µM. For the same molecule, the IC50 [2] was 28.1 ± 1.34 µM and the IC50 (normal human cells HSF) was 32.5 ± 1.98 µM.
For `N.N.[Cl][Pt][Cl]` [Cisplatin, reference compound], the IC50 (breast cancer MCF-7) was 12.3 ± 0.75 µM, the IC50 (gastric cancer SGC-7901) was 11.7 ± 1.45 µM and the IC50 [1] was 11.9 ± 0.19 µM. For the same molecule, the IC50 [2] was 13.9 ± 0.58 µM and the IC50 (normal human cells HSF) was 17.1 ± 1.31 µM.
`O=C(O)C(Cc1c[nH]c2ccccc12)N=Cc1ccccc1O` (stereo not drawn) [Complex L1] showed an IC50 (breast cancer MCF-7) greater than 80 µM, an IC50 (gastric cancer SGC-7901) greater than 80 µM and an IC50 [1] greater than 80 µM. It also gave an IC50 [2] greater than 80 µM.
